Assay results published in ChEMBL document CHEMBL6153046, “Semisynthesis of Glycosmis pentaphylla Alkaloid Derivatives: Pyranoacridone-Hydroxamic Acid Cytotoxic Conjugates with HDAC and Topoisomerase II α Dual Inhibitory Activity” (J Nat Prod, 2025).
Active and inactive are the calls of the source. The rule behind the calls is not given here.

Experiments:
[1] = tested on: MCF7; assay: Cytotoxicity against human MCF-7 cells assessed as cell viability incubated for 96 hrs by MTT assay; type: functional, cell-based; conditions: MCF7, 96 h
[2] = tested on: Calu-3; assay: Cytotoxicity against human CALU-3 cells assessed as cell viability incubated for 96 hrs by MTT assay; type: functional, cell-based; conditions: Calu-3, 96 h
[3] = molecular target: DNA topoisomerase 2-alpha (Homo sapiens) (UniProt P11388); assay: Inhibition of human topoisomerase II alpha using kinetoplast DNA as substrate incubated for 30 mins; conditions: dose 10-100 µM
[4] = tested on: SCC-25; assay: Cytotoxicity against human SCC-25 cells assessed as cell viability incubated for 96 hrs by MTT assay; type: functional, cell-based; conditions: SCC-25, 96 h
[5] = Cytotoxicity against human Oral epithelial cell assessed as cell viability incubated for 96 hrs by MTT assay; conditions: for IC50 at 96 h: human, oral epithelial cells; for IC50: oral epithelial cell
[6] = tested on: SCC-25; assay: Induction of apoptosis in human SCC-25 cells assessed as viable at 0.1 uM incubated for 48 hrs by Annexin V-Alexa fluor 488 and propidium iodide staining based flow cytometry relative to control; type: functional
[7] = tested on: SCC-25; assay: Induction of apoptosis in human SCC-25 cells assessed as necrotic cells at 10 uM incubated for 48 hrs by Annexin V-Alexa fluor 488 and propidium iodide staining based flow cytometry relative to control; type: functional
[8] = tested on: SCC-25; assay: Induction of apoptosis in human SCC-25 cells assessed as viable at 1 uM incubated for 48 hrs by Annexin V-Alexa fluor 488 and propidium iodide staining based flow cytometry relative to control; type: functional
[9] = tested on: SCC-25; assay: Induction of apoptosis in human SCC-25 cells assessed as early apoptotic cells at 0.1 uM incubated for 48 hrs by Annexin V-Alexa fluor 488 and propidium iodide staining based flow cytometry relative to control; type: functional
[10] = tested on: SCC-25; assay: Induction of apoptosis in human SCC-25 cells assessed as early apoptotic cells at 1 uM incubated for 48 hrs by Annexin V-Alexa fluor 488 and propidium iodide staining based flow cytometry relative to control; type: functional
[11] = tested on: SCC-25; assay: Induction of apoptosis in human SCC-25 cells assessed as necrotic cells at 1 uM incubated for 48 hrs by Annexin V-Alexa fluor 488 and propidium iodide staining based flow cytometry relative to control; type: functional
[12] = tested on: SCC-25; assay: Induction of apoptosis in human SCC-25 cells assessed as late apoptotic cells at 1 uM incubated for 48 hrs by Annexin V-Alexa fluor 488 and propidium iodide staining based flow cytometry relative to control; type: functional
[13] = tested on: SCC-25; assay: Induction of apoptosis in human SCC-25 cells assessed as early apoptotic cells at 10 uM incubated for 48 hrs by Annexin V-Alexa fluor 488 and propidium iodide staining based flow cytometry relative to control; type: functional
[14] = tested on: SCC-25; assay: Induction of apoptosis in human SCC-25 cells assessed as necrotic cells at 0.1 uM incubated for 48 hrs by Annexin V-Alexa fluor 488 and propidium iodide staining based flow cytometry relative to control; type: functional
[15] = tested on: SCC-25; assay: Induction of apoptosis in human SCC-25 cells assessed as late apoptotic cells at 10 uM incubated for 48 hrs by Annexin V-Alexa fluor 488 and propidium iodide staining based flow cytometry relative to control; type: functional
[16] = tested on: SCC-25; assay: Induction of apoptosis in human SCC-25 cells assessed as late apoptotic cells at 0.1 uM incubated for 48 hrs by Annexin V-Alexa fluor 488 and propidium iodide staining based flow cytometry relative to control; type: functional
[17] = tested on: SCC-25; assay: Induction of apoptosis in human SCC-25 cells assessed as viable at 10 uM incubated for 48 hrs by Annexin V-Alexa fluor 488 and propidium iodide staining based flow cytometry relative to control; type: functional
[18] = tested on: SCC-25; assay: Induction of apoptosis in human SCC-25 cells assessed as early apoptotic cells at 200 uM incubated for 48 hrs by Annexin V-Alexa fluor 488 and propidium iodide staining based flow cytometry relative to control; type: functional
[19] = molecular target: DNA topoisomerase 2-alpha (Homo sapiens) (UniProt P11388); conditions: dose 2.0 mM, time 30.0 min
[20] = tested on: SCC-25; assay: Induction of apoptosis in human SCC-25 cells assessed as late apoptotic cells at 200 uM incubated for 48 hrs by Annexin V-Alexa fluor 488 and propidium iodide staining based flow cytometry relative to control; type: functional
[21] = tested on: SCC-25; assay: Induction of apoptosis in human SCC-25 cells assessed as necrotic cells at 200 uM incubated for 48 hrs by Annexin V-Alexa fluor 488 and propidium iodide staining based flow cytometry relative to control; type: functional
[22] = tested on: SCC-25; assay: Induction of apoptosis in human SCC-25 cells assessed as viable at 200 uM incubated for 48 hrs by Annexin V-Alexa fluor 488 and propidium iodide staining based flow cytometry relative to control; type: functional
[23] = molecular target: DNA topoisomerase 2-alpha (Homo sapiens) (UniProt P11388); assay: Inhibition of human topoisomerase II alpha using kinetoplast DNA as substrate at 10 microM incubated for 30 mins

DNA topoisomerase 2-alpha (Homo sapiens), sequence (P11388 whole entry): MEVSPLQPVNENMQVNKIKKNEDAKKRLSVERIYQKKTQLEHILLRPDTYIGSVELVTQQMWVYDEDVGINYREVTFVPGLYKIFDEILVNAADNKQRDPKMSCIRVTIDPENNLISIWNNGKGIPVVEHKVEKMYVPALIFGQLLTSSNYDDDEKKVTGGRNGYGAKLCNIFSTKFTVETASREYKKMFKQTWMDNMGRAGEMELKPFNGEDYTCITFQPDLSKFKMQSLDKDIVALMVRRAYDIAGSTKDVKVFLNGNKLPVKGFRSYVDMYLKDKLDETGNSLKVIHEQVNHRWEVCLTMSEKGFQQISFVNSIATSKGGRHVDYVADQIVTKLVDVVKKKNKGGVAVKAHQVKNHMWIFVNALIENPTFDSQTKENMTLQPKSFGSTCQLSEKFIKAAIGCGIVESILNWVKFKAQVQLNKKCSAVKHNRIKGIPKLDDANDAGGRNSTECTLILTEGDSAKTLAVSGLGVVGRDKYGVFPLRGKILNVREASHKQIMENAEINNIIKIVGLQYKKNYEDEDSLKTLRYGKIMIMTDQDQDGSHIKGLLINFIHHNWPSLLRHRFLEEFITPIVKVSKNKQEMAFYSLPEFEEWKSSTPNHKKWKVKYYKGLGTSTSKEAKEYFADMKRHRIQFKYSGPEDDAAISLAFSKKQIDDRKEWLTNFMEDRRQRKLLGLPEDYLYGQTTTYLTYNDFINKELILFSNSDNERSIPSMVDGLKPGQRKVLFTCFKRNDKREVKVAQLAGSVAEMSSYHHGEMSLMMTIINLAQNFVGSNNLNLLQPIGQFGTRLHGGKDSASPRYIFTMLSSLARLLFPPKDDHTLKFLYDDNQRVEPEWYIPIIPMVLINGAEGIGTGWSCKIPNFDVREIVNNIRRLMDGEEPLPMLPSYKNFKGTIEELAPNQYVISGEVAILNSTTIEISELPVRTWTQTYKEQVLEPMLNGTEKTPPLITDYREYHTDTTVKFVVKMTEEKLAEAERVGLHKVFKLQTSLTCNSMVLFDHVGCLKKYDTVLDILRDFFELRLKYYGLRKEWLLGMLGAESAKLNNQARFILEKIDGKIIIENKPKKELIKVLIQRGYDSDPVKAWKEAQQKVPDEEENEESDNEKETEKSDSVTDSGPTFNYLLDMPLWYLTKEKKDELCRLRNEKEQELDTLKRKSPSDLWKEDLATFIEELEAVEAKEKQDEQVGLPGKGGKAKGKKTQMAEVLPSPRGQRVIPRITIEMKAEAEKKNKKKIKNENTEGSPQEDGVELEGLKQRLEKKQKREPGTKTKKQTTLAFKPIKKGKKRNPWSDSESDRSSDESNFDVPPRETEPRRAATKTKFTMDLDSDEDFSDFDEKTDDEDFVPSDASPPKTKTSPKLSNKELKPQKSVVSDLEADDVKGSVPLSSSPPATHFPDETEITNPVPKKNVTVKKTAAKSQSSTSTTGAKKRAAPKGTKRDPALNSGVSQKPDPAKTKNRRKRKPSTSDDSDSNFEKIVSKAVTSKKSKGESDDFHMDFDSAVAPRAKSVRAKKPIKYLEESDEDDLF

inhibition [3]	SMILES	IC50 [1] [µM]	IC50 [2] [µM]	IC50 [4] [µM]	IC50 at 96 h [5] [µM]	IC50 [5]	further results
Dose-dependent-effect	Cn1c2ccccc2c(=O)c2c(OCCCCCC(=O)NO)cc3c(c21)C=CC(C)(C)O3	8.3	16.1	9.7	24.5		
Dose-dependent-effect	COc1cc2c(c3c1c(=O)c1ccccc1n3CCCCCCC(=O)NO)C=CC(C)(C)O2	6.12	4.37	1.11	60.2		
	COc1cc2c(c3c1c(=O)c1ccccc1n3CC(=O)NO)C=CC(C)(C)O2	> 100	61.8	41.5		Not_determined	
Dose-dependent-effect	Cn1c2ccccc2c(=O)c2c(OCCCCC(=O)NO)cc3c(c21)C=CC(C)(C)O3	1.03	1.51	0.35	> 100		Activity [6]: 96.1%; Activity [7]: 33.1%; Activity [8]: 87%; Activity [9]: 0.63%; Activity [10]: 1.13%; Activity [11]: 7.49%; Activity [12]: 4.35%; Activity [13]: 0.15%; Activity [14]: 1.96%; Activity [15]: 53.1%; Activity [16]: 1.35%; Activity [17]: 13.7%
	Cn1c2ccccc2c(=O)c2c(O)cc3c(c21)C=CC(C)(C)O3 [NORACRONYCINE]	187	97.5	14.1		Not_determined	
	COc1cc2c(c3c1c(=O)c1ccccc1n3CCCCCC(=O)NO)C=CC(C)(C)O2	40.8	18	14.8	> 100		
	COc1cc2c(c3c1c(=O)c1ccccc1n3CCCCC(=O)NO)C=CC(C)(C)O2	> 100	29.5	> 100		Not_determined	
	COc1cc2c(c3[nH]c4ccccc4c(=O)c13)C=CC(C)(C)O2	191	13.9	21.2		Not_determined	
Dose-dependent-effect	Cn1c2ccccc2c(=O)c2c(OCC(=O)NO)cc3c(c21)C=CC(C)(C)O3	10.9	4	1.2	> 100		
Dose-dependent-effect	Cn1c2ccccc2c(=O)c2c(OCCCCCCC(=O)NO)cc3c(c21)C=CC(C)(C)O3	5.7	10.6	0.7	> 100		
	Cn1c2ccccc2c(=O)c2c(OCc3ccc(C(=O)NO)cc3)cc3c(c21)C=CC(C)(C)O3	4.71	1.81	1.66	> 100		
	COc1cc2c(c3c1c(=O)c1ccccc1n3CCCC(=O)NO)C=CC(C)(C)O2	> 100	36.8	36		Not_determined	
Dose-dependent-effect	COc1cc2c(c3c1c(=O)c1ccccc1n3Cc1ccc(C(=O)NO)cc1)C=CC(C)(C)O2	19.7	14.2	7.7	82.5		
Dose-dependent-effect	Cn1c2ccccc2c(=O)c2c(OCCCC(=O)NO)cc3c(c21)C=CC(C)(C)O3	2.8	3.2	2.2	27		
	COc1cc2c(c3c1c(=O)c1ccccc1n3Cc1cccc(C(=O)NO)c1)C=CC(C)(C)O2	80.1	42	39.3		Not_determined	
	COc1cc([C@@H]2c3cc4c(cc3[C@@H](O[C@@H]3O[C@@H]5CO[C@@H](C)O[C@H]5[C@H](O)[C@H]3O)[C@H]3COC(=O)[C@H]23)OCO4)cc(OC)c1O [ETOPOSIDE]	55.6	0.6	3.4		Not_determined	Activity [18]: 2.76%; inhibition [19]: Active; Activity [20]: 17.2%; Activity [21]: 13.3%; Activity [22]: 65.5%
	Cn1c2ccccc2c(=O)c2c(OCc3cccc(C(=O)NO)c3)cc3c(c21)C=CC(C)(C)O3	6.62	6.53	23.1	> 100		inhibition [23]: Active
